For twelve compounds, Ki results are on record in article PMC6913647, “Novel sulphonamides incorporating triazene moieties show powerful carbonic anhydrase I and II inhibitory properties” (Journal of Enzyme Inhibition and Medicinal Chemistry, 2019).

One test deals with T1, hCA II (Homo sapiens, UniProt P00918).
T1 construct: gene CA2; native enzyme purified from human blood; cytosolic isoform
Description: esterase inhibition assay. In kind it is biochemical. The source says:
esterase inhibition assay on hCA II

A further test deals with T2, hCA I (Homo sapiens, UniProt P00915).
T2 construct: gene CA1; native enzyme purified from human blood; cytosolic isoform
T2 sequence (P00915 2-261): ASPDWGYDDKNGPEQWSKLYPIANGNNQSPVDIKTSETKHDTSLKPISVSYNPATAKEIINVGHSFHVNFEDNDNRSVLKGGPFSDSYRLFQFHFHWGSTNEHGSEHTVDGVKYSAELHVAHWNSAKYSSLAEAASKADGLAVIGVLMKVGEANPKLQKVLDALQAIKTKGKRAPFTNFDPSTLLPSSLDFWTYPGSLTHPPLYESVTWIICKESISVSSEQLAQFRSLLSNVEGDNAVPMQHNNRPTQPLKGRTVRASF
Description: esterase inhibition assay. The format is biochemical. An excerpt:
esterase inhibition assay on hCA I

Where [1] appears, read: substrate 4-nitrophenyl acetate.

Read-outs that look alike come from different tables or passages of the source.

As for `NS(=O)(=O)c1cccc(N=NNc2ccccc2)c1` [compound 1, 3–(3-Pheynltriaz-1-en-1-yl)benzenesulfonamide], the results for the Ki at hCA II and at hCA I were 18 ± 5 nM and 28 ± 6 nM, respectively.
In the case of `NS(=O)(=O)c1cccc(N=NNc2ccc(F)cc2)c1` [compound 2, 3-(3-(4-Fluorophenyl)triaz-1-en-1-yl) benzenesulfonamide], the Ki at hCA II was 21 ± 9 nM; on hCA I (setting [1]) it was 21 ± 4 nM.
Turning to `NS(=O)(=O)c1cccc(N=NNc2ccc(Br)cc2)c1` [compound 3, 3-(3-(4-Bromophenyl)triaz-1-en-1-yl) benzenesulfonamide], the Ki at hCA II was 19 ± 4 nM; on hCA I, 57 ± 3 nM.
Take `CCOc1ccc(NN=Nc2cccc(S(N)(=O)=O)c2)cc1` [compound 4, 3-(3-(4-Ethoxyphenyl)triaz-1-en-1-yl) benzenesulfonamide]: the figures for the inhibition constant Ki at hCA II (setting [1]) and at hCA I were 16 ± 6 nM and 38 ± 4 nM, respectively.
Take `COc1ccc(/N=N/Nc2cccc(S(N)(=O)=O)c2)cc1` [compound 5, 3-(3-(4-Methoxyphenyl)triaz-1-en-1-yl) benzenesulfonamide]: the results for the Ki at hCA II and at hCA I were 21 ± 4 nM and 42 ± 8 nM, respectively.
On the same counts, the results for `CCc1ccc(NN=Nc2cccc(S(N)(=O)=O)c2)cc1` [compound 6, 3-(3-(4-Ethylphenyl)triaz-1-en-1-yl) benzenesulfonamide] are 16 ± 2 nM and 49 ± 2 nM.
`NS(=O)(=O)c1cccc(N=NNc2cccc(Cl)c2)c1` [compound 7, 3-(3-(3-Chlorophenyl)triaz-1-en-1-yl) benzenesulfonamide]: the Ki on hCA II came out at 22 ± 6 nM; on hCA I, 53 ± 15 nM.
On the same counts, the results for `NS(=O)(=O)c1cccc(N=NNc2cccc(F)c2)c1` [compound 8, 3-(3-(3-Fluorophenyl)triaz-1-en-1-yl) benzenesulfonamide] are 28 ± 6 nM and 36 ± 3 nM.
As to `COc1cccc(NN=Nc2cccc(S(N)(=O)=O)c2)c1` [compound 9, 3-(3-(3-Methoxyphenyl)triaz-1-en-1-yl) benzenesulfonamide], the Ki was determined as 23 ± 2 nM on hCA II and 33 ± 5 nM at hCA I.
Take `NS(=O)(=O)c1cccc(N=NNc2ccccc2Cl)c1` [compound 10, 3-(3-(2-Chlorophenyl)triaz-1-en-1-yl) benzenesulfonamide]: the inhibition constant Ki was determined as 20 ± 5 nM on hCA II and 46 ± 12 nM at hCA I.
For the compound `NS(=O)(=O)c1cccc(N=NNc2ccccc2F)c1` [compound 11, 3-(3-(2-Fluorophenyl)triaz-1-en-1-yl) benzenesulfonamide], the Ki turned out to be 33 ± 9 nM on hCA II and 72 ± 2 nM on hCA I.
`NS(=O)(=O)c1cccc(N=NNc2ccccc2Br)c1` [compound 12, 3-(3-(2-Bromophenyl)triaz-1-en-1-yl) benzenesulfonamide]: the inhibitory constant (Ki) was determined as 40 ± 2 nM on hCA II and 61 ± 1 nM at hCA I.

Usually Ki stands for a dissociation constant, usually derived from enzyme kinetics or from competition with a known ligand. Higher therefore signals weaker binding.
